Laboratory results from ChEMBL document CHEMBL1150879, “Synthesis of (+/-)-cassumunins A and B, new curcuminoid antioxidants having protective activity of the living cell against oxidative damage” (J Nat Prod, 1998).

Tested on: Thymocyte
Assay: Inhibition of H2O2-induced cell death of rat thymocyte assessed as cell viability
Format: functional, cell-based

SMILES	IC50
COc1cc(/C=C/C(=O)CC(=O)/C=C/c2cc(OC)c(O)c(C(C)/C=C/c3ccc(OC)c(OC)c3)c2)ccc1O (stereo not drawn) [CASSUMUNIN A]	0.17 µM
COc1cc(/C=C/C(=O)CC(=O)/C=C/c2cc(OC)c(O)c(C(C)/C=C/c3cc(OC)c(OC)cc3OC)c2)ccc1O (stereo not drawn) [CASSUMUNIN B]	0.22 µM
COc1cc(/C=C/C(=O)CC(=O)/C=C/c2ccc(O)c(OC)c2)ccc1O [CURCUMIN]	1.02 µM
